Assay results: ChEMBL document CHEMBL6134930, “Discovery of AB801, a Potent and Selective Inhibitor of AXL Receptor Tyrosine Kinase for Use in Cancer Therapy” (J Med Chem, 2025)

Experiments:
[1] = AUCinfinity in Sprague-Dawley rat at 1 mg/kg, iv measured up to 8 hrs by LC-MS/MS analysis; type: ADME, organism-based; settings: in vivo
[2] = Metabolic stability in rat hepatocytes assessed as intrinsic clearance measured per 10^6 cells; type: ADME, cell-based, Hepatocyte; settings: read-out: CLH
[3] = target: T1, Tyrosine-protein kinase receptor UFO (Homo sapiens, UniProt P30530); assay: Binding affinity to AXL (unknown origin) expressed in HEK293 cells transfected with Nano-Luc fusion vector assessed as dissociation constant by measuring decrease in BRET signal preincubated for 1 hr followed by K-5 NanoBRET tracer addition incubated for 2 hrs; type: cell-based
T1 sequence (P30530 whole entry): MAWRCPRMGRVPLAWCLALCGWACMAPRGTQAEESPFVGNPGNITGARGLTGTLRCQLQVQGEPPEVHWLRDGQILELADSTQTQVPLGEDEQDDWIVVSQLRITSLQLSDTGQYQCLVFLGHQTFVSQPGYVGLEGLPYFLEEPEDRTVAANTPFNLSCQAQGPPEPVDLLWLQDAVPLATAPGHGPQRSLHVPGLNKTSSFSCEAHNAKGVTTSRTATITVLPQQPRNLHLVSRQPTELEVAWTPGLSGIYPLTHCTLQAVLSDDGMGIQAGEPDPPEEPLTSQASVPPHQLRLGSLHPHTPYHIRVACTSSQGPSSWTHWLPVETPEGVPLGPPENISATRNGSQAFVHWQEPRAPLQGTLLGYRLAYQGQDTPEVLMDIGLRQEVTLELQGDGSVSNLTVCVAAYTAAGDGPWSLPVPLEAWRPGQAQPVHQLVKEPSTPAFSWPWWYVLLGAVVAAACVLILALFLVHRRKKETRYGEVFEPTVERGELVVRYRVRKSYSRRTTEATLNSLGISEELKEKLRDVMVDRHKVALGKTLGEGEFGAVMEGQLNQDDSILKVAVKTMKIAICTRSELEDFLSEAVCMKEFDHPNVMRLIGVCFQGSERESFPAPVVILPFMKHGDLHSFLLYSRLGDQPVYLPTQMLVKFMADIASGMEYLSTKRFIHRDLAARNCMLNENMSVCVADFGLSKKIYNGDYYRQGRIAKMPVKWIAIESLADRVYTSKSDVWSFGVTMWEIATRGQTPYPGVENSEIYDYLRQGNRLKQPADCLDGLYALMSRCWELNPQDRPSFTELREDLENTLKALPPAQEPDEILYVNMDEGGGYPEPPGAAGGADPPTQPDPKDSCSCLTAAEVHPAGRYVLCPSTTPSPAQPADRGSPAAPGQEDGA

[4] = Terminal half life in Sprague-Dawley rat at 1 mg/kg, iv measured up to 8 hrs by LC-MS/MS analysis; type: ADME, organism-based; settings: in vivo, read-out: beta t1/2 (converted)
[5] = AUCinfinity in Beagle dog at 1 mg/kg, iv measured up to 8 hrs by LC-MS/MS analysis; type: ADME, organism-based, Canis lupus familiaris; settings: in vivo
[6] = Volume of distribution at steady state in cynomolgus monkey at 1 mg/kg, iv measured up to 8 hrs by LC-MS/MS analysis; type: ADME, organism-based, Macaca fascicularis; settings: in vivo, read-out: Vdss
[7] = Metabolic stability in human hepatocytes assessed as intrinsic clearance measured per 10^6 cells; type: ADME, cell-based, Hepatocyte; settings: read-out: CLH
[8] = Terminal half life in Beagle dog at 1 mg/kg, iv measured up to 8 hrs by LC-MS/MS analysis; type: ADME, organism-based, Canis lupus familiaris; settings: in vivo, read-out: beta t1/2 (converted)
[9] = Clearance in CD-1 mouse at 1 mg/kg, iv measured up to 24 hrs by LC-MS/MS analysis; type: ADME, organism-based; settings: in vivo
[10] = Clearance in Beagle dog at 1 mg/kg, iv measured up to 8 hrs by LC-MS/MS analysis; type: ADME, organism-based, Canis lupus familiaris; settings: in vivo
[11] = AUC (0 to last) in CD-1 mouse at 1 mg/kg, iv measured up to 24 hrs by LC-MS/MS analysis; type: ADME, organism-based; settings: in vivo
[12] = Volume of distribution at steady state in CD-1 mouse at 1 mg/kg, iv measured up to 24 hrs by LC-MS/MS analysis; type: ADME, organism-based; settings: in vivo, read-out: Vdss
[13] = Efflux ratio in human Caco-2 cells; type: ADME, cell-based
[14] = target: T1, Tyrosine-protein kinase receptor UFO; assay: Inhibition of human AXL measured after 150 mins by ATP-competitive HTRF based biochemical assay
[15] = AUCinfinity in cynomolgus monkey at 1 mg/kg, iv measured up to 8 hrs by LC-MS/MS analysis; type: ADME, organism-based, Macaca fascicularis; settings: in vivo
[16] = Volume of distribution at steady state in Sprague-Dawley rat at 1 mg/kg, iv measured up to 8 hrs by LC-MS/MS analysis; type: ADME, organism-based; settings: in vivo, read-out: Vdss
[17] = Terminal half life in cynomolgus monkey at 1 mg/kg, iv measured up to 8 hrs by LC-MS/MS analysis; type: ADME, organism-based, Macaca fascicularis; settings: in vivo, read-out: beta t1/2 (converted)
[18] = AUCinf in Sprague-Dawley rat at 2 mg/kg, po measured up to 8 hrs by LC-MS/MS analysis; type: ADME, organism-based; settings: in vivo
[19] = AUC (0 to last) in Beagle dog at 1 mg/kg, iv measured up to 8 hrs by LC-MS/MS analysis; type: ADME, organism-based, Canis lupus familiaris; settings: in vivo
[20] = Clearance in cynomolgus monkey at 1 mg/kg, iv measured up to 8 hrs by LC-MS/MS analysis; type: ADME, organism-based, Macaca fascicularis; settings: in vivo
[21] = AUC (0 to last) in Sprague-Dawley rat at 1 mg/kg, iv measured up to 8 hrs by LC-MS/MS analysis; type: ADME, organism-based; settings: in vivo
[22] = AUC (0 to last) in cynomolgus monkey at 1 mg/kg, iv measured up to 8 hrs by LC-MS/MS analysis; type: ADME, organism-based, Macaca fascicularis; settings: in vivo
[23] = AUCinfinity in CD-1 mouse at 1 mg/kg, iv measured up to 24 hrs by LC-MS/MS analysis; type: ADME, organism-based; settings: in vivo
[24] = Terminal half life in CD-1 mouse at 1 mg/kg, iv measured up to 24 hrs by LC-MS/MS analysis; type: ADME, organism-based; settings: in vivo, read-out: beta t1/2 (converted)
[25] = Volume of distribution at steady state in Beagle dog at 1 mg/kg, iv measured up to 8 hrs by LC-MS/MS analysis; type: ADME, organism-based, Canis lupus familiaris; settings: in vivo, read-out: Vdss
[26] = Clearance in Sprague-Dawley rat at 1 mg/kg, iv measured up to 8 hrs by LC-MS/MS analysis; type: ADME, organism-based; settings: in vivo

CN(C)C(=O)c1ccc(-c2n[nH]c3ncc(-c4ccc5c(c4)CC[C@@H](N4C6COCC4C6)CC5)cc23)cc1
AUC(0-inf) [1]: 6400 ng·h/mL
hepatocyte CLint [2]: 20 µL/min/1e6 cells
Kd [3]: 6.8 nM
half-life [4]: 2.2 h
AUC(0-inf) [5]: 560 ng·h/mL
Vd [6]: 13 L/kg
hepatocyte CLint [7]: 4.6 µL/min/1e6 cells
half-life [8]: 3.8 h
clearance [9]: 38.3 mL/min/kg
clearance [10]: 33.3 mL/min/kg
AUC(0-t) at 24 h [11]: 13 ng·h/mL
Vd [12]: 3.2 L/kg
efflux ratio [13]: 11
IC50 [14]: 5.3 nM
AUC(0-inf) [15]: 230 ng·h/mL
Vd [16]: 0.34 L/kg
half-life [17]: 2.3 h
AUC(0-inf) [18]: 4300 ng·h/mL
AUC(0-t) at 8 h [19]: 540 ng·h/mL
clearance [20]: 76.7 mL/min/kg
AUC(0-t) at 8 h [21]: 6100 ng·h/mL
AUC(0-t) at 8 h [22]: 210 ng·h/mL
AUC(0-inf) [23]: 430 ng·h/mL
half-life [24]: 8.1 h
Vd [25]: 8.1 L/kg
clearance [26]: 2.67 mL/min/kg
